Values after ≈ are worked out from the molar mass of the structure shown. Where two headings read alike, the source gives them in different places.

One experiment has as its system L-type calcium channels. As to conditions: cited from earlier work.
The next experiment relates to S. aureus. As to the kind of experiment: MIC, two-fold microbroth dilution method. Conditions: Staphylococcus aureus.
Another experiment concerns B. subtilis. The experiment in a line: MIC, two-fold microbroth dilution method. As to conditions: Bacillus subtilis. A general note: In broth dilution the organism is exposed to a series of concentrations in liquid medium.
In another experiment the test system is E. coli. As to the kind of experiment: MIC, two-fold microbroth dilution method. Conditions: Escherichia coli, read-out: MIC (µg/mL) E. coli.
The next experiment has as its system Bacillus subtilis. As to the kind of experiment: Agar well diffusion method. For orientation: Agar diffusion results depend on both activity and mobility in agar.
The test system of experiment [1] is G positive and G negative bacteria. The experiment in a line: Agar well diffusion method, summary. Type of experiment: cell-based. Conditions: reference drug, range over four strains. The source says: As a control, DMSO solvent was employed.
The test system of a further experiment is Pseudomonas aeruginosa. As to the kind of experiment: Agar well diffusion method.
Another experiment relates to Escherichia coli. As to the kind of experiment: Agar well diffusion method.
The test system of another experiment is Staphylococcus aureus. The experiment in a line: Agar well diffusion method.
A further experiment concerns P. aeruginosa. The experiment in a line: MIC, two-fold microbroth dilution method. Conditions: Pseudomonas aeruginosa, read-out: MIC (µg/mL) P. aeruginosa.
A further experiment relates to Candida albicans. The experiment in a line: Agar well diffusion method.
The test system of a further experiment is C. albicans. As to the kind of experiment: MIC, two-fold microbroth dilution method. Conditions: Candida albicans, read-out: MIC (µg/mL) C. albicans.
The test system of the next experiment is Aspergillus flavus. As to the kind of experiment: Agar well diffusion method.
A further experiment concerns A. flavus. The experiment in a line: MIC, two-fold microbroth dilution method. Conditions: Aspergillus flavus, read-out: MIC (µg/mL) A. flavus.
Experiment [2] deals with fungi (Candida albicans and Aspergillus flavus). As to the kind of experiment: Agar well diffusion method, summary. Conditions: range over strains.

With `COC(=O)C1=C(C)NC(C)=C(C(=O)OCCCN2CCC(c3ccccc3)(c3ccccc3)CC2)[C@@H]1c1cccc([N+](=O)[O-])c1` [Dexniguldipine, dexniguldipine], the “times less potent than (+)-niguldipine in its interaction with L-type calcium channels” value in the experiment on L-type calcium channels was 40.

Regarding `O=C(O)c1cn(C2CC2)c2cc(N3CCNCC3)c(F)cc2c1=O` [Ciprofloxacin, reference compound], the MIC with S. aureus (24 h, read-out: MIC, S. aureus) stood at 1 µg/mL (≈ 3.02 µM); in the experiment with S. aureus (read-out: MIC (µg/mL) S. aureus), 1 µg/mL (≈ 3.02 µM); in the experiment on B. subtilis (24 h, read-out: MIC, B. subtilis) it was 2 µg/mL (≈ 6.04 µM); in the experiment on B. subtilis (read-out: MIC (µg/mL) B. subtilis) it was 2 µg/mL (≈ 6.04 µM); in the experiment on E. coli, 0.5 µg/mL (≈ 1.51 µM); with P. aeruginosa, 1 µg/mL (≈ 3.02 µM). Also, the zone of inhibition at 1000 µg/mL amounted to 23 mm with Bacillus subtilis (Bacillus subtilis, 24 h, read-out: Diameter of inhibition zone, B. subtilis); 23 mm with Pseudomonas aeruginosa (Pseudomonas aeruginosa, 24 h, read-out: Diameter of inhibition zone, P. aeruginosa); 26 mm in the experiment with Escherichia coli (Escherichia coli, 24 h, read-out: Diameter of inhibition zone, E. coli); 24 mm with Staphylococcus aureus (Staphylococcus aureus, 24 h, read-out: Diameter of inhibition zone, S. aureus). In addition, the “% activity index, B. subtilis” value with Bacillus subtilis (relative to ciprofloxacin) came out at 100%. Also, the DIZs against bacteria in experiment [1] is given as 23–26 mm. Further, in the experiment on Pseudomonas aeruginosa (relative to ciprofloxacin), the “% activity index, P. aeruginosa” value is on record as 100%. The “% activity index, E. coli” value with Escherichia coli (relative to ciprofloxacin) is 100%. Further, the “% activity index, S. aureus” value in the experiment with Staphylococcus aureus (relative to ciprofloxacin) is reported as 100%.

With `Clc1ccccc1C(c1ccccc1)(c1ccccc1)n1ccnc1` [Clotrimazole, reference compound], the zone of inhibition at 1000 µg/mL in the experiment on Candida albicans (Candida albicans, 24 h, read-out: Diameter of inhibition zone, C. albicans) came to 27 mm; in the experiment with Aspergillus flavus (Aspergillus flavus, 24 h, read-out: Diameter of inhibition zone, A. flavus) it was 25 mm. The “% activity index, C. albicans” value in the experiment with Candida albicans (relative to clotrimazole) was found to be 100%. For the same compound, the MIC stood at 2 µg/mL (≈ 5.8 µM) with C. albicans and 1 µg/mL (≈ 2.9 µM) in the experiment with A. flavus. For the same compound, the “% activity index, A. flavus” value in the experiment with Aspergillus flavus (relative to clotrimazole) is 100%. Besides, in [2], the DIZs against fungi is 25–27 mm.

As usually defined, the zone of inhibition is the size of the clear area around the sample on an inoculated plate.

Source of the values: publication PMC9481151, “Discovery of new symmetrical and asymmetrical nitrile-containing 1,4-dihydropyridine derivatives as dual kinases and P-glycoprotein inhibitors: synthesis, in vitro assays, and in silico studies” (Journal of Enzyme Inhibition and Medicinal Chemistry, 2022).
